Assay in all cases: NCI-60 cell line screen, 48 h
Experiment [1] relates to RPMI-8226 leukemia.
The test system of experiment [2] is SK-OV-3 ovarian.
Experiment [3] has as its system ACHN renal.
The subject of experiment [4] is M14 melanoma.
In experiment [5] the test system is NCI-H23 lung.
The subject of experiment [6] is HOP-92 NSCLC.
The subject of experiment [7] is HOP-62 NSCLC.
Experiment [8] deals with OVCAR-5 ovarian.
For experiment [9], the system named is A498 renal.
Experiment [10] has as its system KM12 colon.
Experiment [11] concerns NCI/ADR-RES ovarian.
In experiment [12] the test system is U251 CNS.
Experiment [13] has as its system PC-3 prostate.
Experiment [14] concerns K-562 leukemia.
Experiment [15] has as its system IGROV1 ovarian.
Experiment [16] concerns MCF7 breast.

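1) Cells in 96-well plates. 2) Compound, 48 h, 5 concentrations. 3) Linear interpolation between surrounding doses. 4) Unreached endpoint = highest concentration. TGI marks complete inhibition of growth.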

For `Nc1nc(N)c2ncn(Cc3ccccc3CO)c2n1`, the TGI in experiment [1], in experiment [2], in experiment [3], in experiment [4], in experiment [5] and in experiment [6] was more than 100 µM in each case. In addition, the TGI in [7], in experiment [8], in experiment [9], in [10], in experiment [11] and in experiment [12] was more than 100 µM throughout. Also, the TGI in [13], in experiment [14], in experiment [15] and in experiment [16] was more than 100 µM in each case.

Turning to `CSc1cc(Cl)c(C(=O)Nc2ccccc2)cc1S(=O)(=O)n1cc[nH]c1=O`, the TGI in [1], in experiment [2], in experiment [3], in experiment [4], in experiment [5] and in experiment [6] was more than 100 µM throughout. Besides, the TGI in experiment [7], in experiment [8], in [9], in [10], in [11] and in experiment [12] was more than 100 µM in each case. For the same molecule, the TGI in experiment [13], in [14], in experiment [15] and in experiment [16] was more than 100 µM each time.

Consider `COc1ccc(/C=C2\CC3C4CC=C5C[C@@H](N6CCCC6)CC[C@]5(C)C4CC[C@]3(C)[C@H]2O)cc1OC` (stereo not given in full), for which the TGI in experiment [1] came out at 22.1 µM; in experiment [2], 17.5 µM; in experiment [3], 16 µM; in experiment [4], 16.8 µM; in experiment [5], 17.6 µM; in experiment [6], 23.4 µM. For the same molecule, the TGI was determined as 12.3 µM in experiment [7]; 19 µM in experiment [8]; 17 µM in experiment [9]; 14.2 µM in [10]; 19.2 µM in experiment [11]; 15.8 µM in [12]. Further, the TGI turned out to be 12.6 µM in experiment [13], 37.5 µM in [14], 21.4 µM in [15] and 14.8 µM in experiment [16].

Regarding `CC1=NN(c2nc(N)nc(CCl)n2)C(C)(C)C1`, the TGI was more than 100 µM in [1]; more than 100 µM in [2]; 31 µM in experiment [3]; more than 75.4 µM in [4]; 28.6 µM in [5]; 45.7 µM in [6]. Further, the TGI in experiment [7] was 19.1 µM; in experiment [8], more than 78 µM; in experiment [9], more than 84.4 µM; in experiment [10], 51.5 µM; in experiment [11], 35 µM; in experiment [12] it was more than 63.3 µM. Further, the TGI is more than 100 µM in experiment [13], more than 69.5 µM in experiment [14], 20.5 µM in experiment [15] and more than 100 µM in experiment [16].

Consider `COc1ccc2c(c1)C1Oc3ccccc3CC1CO2` (stereo not given), for which the TGI was 65.4 µM in [1]; more than 100 µM in [2]; more than 100 µM in experiment [3]; more than 100 µM in [4]; more than 100 µM in experiment [5]; 87 µM in experiment [6]. Further, the TGI in experiment [7] is more than 100 µM; in [8], more than 100 µM; in experiment [9], 96.2 µM; in experiment [10], more than 100 µM; in [11], more than 100 µM; in [12], more than 100 µM. Besides, the TGI in [13], in [14], in [15] and in experiment [16] was more than 100 µM throughout.

As for `COc1cc2c(/C=C3/C(=O)Nc4cc(C)c(O)cc43)c(Cl)[nH]c2cc1C`, the TGI in [1] is 4.44 µM; in experiment [2], 8.32 µM; in experiment [3] it was 17.9 µM; in experiment [4], 5.89 µM; in experiment [5], 5.87 µM; in experiment [6], more than 100 µM. The TGI in experiment [7] turned out to be 10.9 µM; in experiment [8], 15.6 µM; in [9] it was 43.2 µM; in experiment [10], 10.2 µM; in experiment [11], 12.8 µM; in experiment [12] it was 15.7 µM. Moreover, the TGI in experiment [13] was 21.9 µM; in [14] it was 3.9 µM; in experiment [15], 18.8 µM; in experiment [16] it was 13.4 µM.

In the case of `CC(Oc1ccc(Cl)cc1Cl)C(=O)NN1C(=O)CC(=O)NC1=S` (stereo not given), the TGI in [1], in experiment [2], in experiment [3], in [4], in [5] and in [6] was more than 100 µM in each case. Besides, the TGI in experiment [7], in experiment [8], in [9], in experiment [10], in [11] and in experiment [12] was more than 100 µM each time. Besides, the TGI in [13], in experiment [14], in experiment [15] and in experiment [16] was more than 100 µM in each case.

Regarding `CCSc1c2cc(OC)ccc2nc2ccc(OC)cc12`, the TGI in [1] was 22.2 µM; in experiment [2], more than 92.5 µM; in experiment [3], more than 87.4 µM; in experiment [4], 33.3 µM; in experiment [5], more than 86.1 µM; in [6], more than 100 µM. Also, the TGI in experiment [7] is 53.9 µM; in experiment [8], 78.4 µM; in [9], 30 µM; in experiment [10], more than 55.6 µM; in [11], more than 69.7 µM; in [12], more than 79.2 µM. In addition, the TGI is more than 56 µM in [13], more than 44.1 µM in [14], more than 55 µM in experiment [15] and more than 100 µM in experiment [16].

As for `CCOC(=O)C1=C(C)N(Cc2ccccc2)C2(O)C=CC(=O)C3C(=O)N(c4ccccc4)C(=O)C132` (stereo not given), the TGI in [1] worked out at 3.1 µM; in [2], 19.3 µM; in experiment [3] it was 3.25 µM; in experiment [4], 3.92 µM; in experiment [5], 5.36 µM; in experiment [6] it was 7.96 µM. Further, the TGI in experiment [7] turned out to be 5.52 µM; in experiment [8], 9.85 µM; in [9], 28.1 µM; in [10], 4.59 µM; in experiment [11], 10.6 µM; in experiment [12], 11.8 µM. In addition, the TGI in [13] is 6.88 µM; in experiment [14], 27.3 µM; in [15], 4.32 µM; in experiment [16], 12.7 µM.

As to `NC(N)=NS(=O)(=O)c1ccc(NCc2cccc3c(=O)c4ccc(Cl)cc4oc23)cc1`, the TGI in [1] is more than 25 µM; in experiment [2], more than 17.3 µM; in experiment [3] it was more than 13.6 µM; in [4] it was more than 16.3 µM; in experiment [5], more than 21.8 µM; in experiment [6], 17.8 µM. Further, the TGI in [7] was more than 18.9 µM; in [8], more than 18.9 µM; in [9] it was more than 15.3 µM; in [10], more than 25 µM; in [11] it was more than 14 µM; in [12], more than 14.6 µM. Moreover, the TGI in experiment [13] is more than 14 µM; in [14], more than 25 µM; in [15], more than 11 µM; in [16], more than 25 µM.

(Values after PubChem BioAssay (NCI).)
